Here are results for 1 molecule from US20250368637A1, “SOLID-STATE FORMS OF N-(2-(4-CYANOTHIAZOLIDIN-3-YL)-2-OXOETHYL)-6-MORPHOLINOQUINOLINE-4-CARBOXAMIDE” (AstraZeneca AB, priority 2022, published 2025).

The structures appear in SMILES notation.

The target in assay [1] is hFAP (M39-A757) (Homo sapiens (Human), UniProt Q12884). The assay is described as follows: hFAP binding assay (surface plasmon resonance). The conditions noted are these: SPR, 20° C.
Procedure: The hFAP protein used in the Examples was either commercially sourced or produced in insect cells as recombinant hFAP (Gp67-6HN-TEV-FAP (M39-A757), MW 89086.7 Da, or cd33-FAP (27-757)-6His, MW85926 Da).
Immobilization of hFAP (M39-A757) on a CMD200M sensor chip (Xantec) was performed using standard amine coupling procedure in immobilization buffer (10 mM HEPES, 150 mM NaCl, 0.05% Tween20, pH 7.4). The surface was washed with 10 mM NaOH, IM NaCl before being activated with EDC/NHS (GE Healthcare), followed by immobilization of hFAP (in 10 mM Acetate pH 5.0). Finally, the surface was deactivated by ethanolamine. Immobilization levels of hFAP were around 4000-6000 RU. The reference spot was treated as described, omitting the injection of hFAP. Compound concentration series were injected over the immobilized protein in increasing concentrations (2-500 nM) using single cycle kinetics in running buffer (20 mM TRIS, 150 mM NaCl, 0.05% Tween20, 1% DMSO, pH 7.4). Interaction models were fitted globally to the experimental traces, enabling determination of kon, koff and Kd.
Assay [2] concerns the target FAP Cyno Plasma (Macaca fascicularis, UniProt A0A2K5VGH4). The assay is described as follows: FAP plasma inhibition assay, cynomolgus plasma. In kind it is biochemical. The following applies: cynomolgus plasma dilution 1:40. The method, then:
Plasma (anticoagulant K2EDTA) was used as the enzyme source: Human plasma (Pooled from AZ Biobank), Mouse plasma (AZ AST Biobank), and Cynomolgus plasma (BioIVT, #NHP00PLK2FNN, lot CYN222895). 384-Well black fluotrack PS plates (Greiner 781076) were used. 20 μL diluted plasma (Cynomolgus and Human plasma dilution 1:40, Mouse plasma dilution 1:67) in buffer (PBS, 0.1% BSA) was added to 0.6 μL compounds (in DMSO). Compounds were tested using 10 CR, 3-fold dilution series from 500 nM FAC. Two replicates for each assay point were run on the same plate. A fluorescence blank read was taken before substrate addition. […] Plates were incubated for 40 min at rt in the dark. […] IC50 values were determined by plotting % inhibition versus log compound concentration.

Chain of hFAP (M39-A757) (Q12884 39-757): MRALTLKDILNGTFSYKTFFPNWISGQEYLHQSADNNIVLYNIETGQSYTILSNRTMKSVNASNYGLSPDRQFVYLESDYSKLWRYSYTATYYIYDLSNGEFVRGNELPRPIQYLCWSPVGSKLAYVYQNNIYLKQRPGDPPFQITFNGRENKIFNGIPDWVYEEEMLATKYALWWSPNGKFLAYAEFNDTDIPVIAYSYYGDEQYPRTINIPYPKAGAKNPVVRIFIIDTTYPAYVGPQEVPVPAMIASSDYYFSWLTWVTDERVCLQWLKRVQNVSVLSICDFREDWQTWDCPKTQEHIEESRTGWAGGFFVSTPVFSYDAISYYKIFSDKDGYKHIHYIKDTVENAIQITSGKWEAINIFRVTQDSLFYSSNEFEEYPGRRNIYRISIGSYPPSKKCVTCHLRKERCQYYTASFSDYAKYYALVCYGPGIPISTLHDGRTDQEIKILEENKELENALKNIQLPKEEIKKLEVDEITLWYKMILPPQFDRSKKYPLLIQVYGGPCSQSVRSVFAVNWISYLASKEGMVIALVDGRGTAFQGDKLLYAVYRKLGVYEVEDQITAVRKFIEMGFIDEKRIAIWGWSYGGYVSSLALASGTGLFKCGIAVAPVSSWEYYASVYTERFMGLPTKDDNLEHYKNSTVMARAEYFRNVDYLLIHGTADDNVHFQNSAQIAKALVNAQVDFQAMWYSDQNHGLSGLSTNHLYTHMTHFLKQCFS
Chain of FAP Cyno Plasma (A0A2K5VGH4 1-745): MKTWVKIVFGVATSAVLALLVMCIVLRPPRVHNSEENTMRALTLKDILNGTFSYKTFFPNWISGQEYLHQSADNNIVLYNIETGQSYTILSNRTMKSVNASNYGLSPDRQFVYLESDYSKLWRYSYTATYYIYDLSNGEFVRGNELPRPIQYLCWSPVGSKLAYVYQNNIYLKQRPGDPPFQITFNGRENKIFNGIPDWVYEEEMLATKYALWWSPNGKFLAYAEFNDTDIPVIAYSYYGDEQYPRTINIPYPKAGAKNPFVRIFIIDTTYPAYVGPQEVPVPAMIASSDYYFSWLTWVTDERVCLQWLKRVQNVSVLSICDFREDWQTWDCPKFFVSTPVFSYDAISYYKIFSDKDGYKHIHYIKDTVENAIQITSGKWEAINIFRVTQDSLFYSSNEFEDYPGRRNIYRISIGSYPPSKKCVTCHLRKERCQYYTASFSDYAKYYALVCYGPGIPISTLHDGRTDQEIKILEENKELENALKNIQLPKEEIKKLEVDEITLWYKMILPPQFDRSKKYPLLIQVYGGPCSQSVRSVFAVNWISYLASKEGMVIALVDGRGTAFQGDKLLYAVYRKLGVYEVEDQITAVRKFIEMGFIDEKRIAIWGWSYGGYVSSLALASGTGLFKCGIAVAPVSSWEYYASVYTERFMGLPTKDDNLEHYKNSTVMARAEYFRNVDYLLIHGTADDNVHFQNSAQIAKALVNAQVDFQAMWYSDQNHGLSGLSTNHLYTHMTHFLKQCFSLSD

Usually IC50 stands for the concentration at which inhibition is half-maximal. For `N#C[C@@H]1CSCN1C(=O)CNC(=O)c1ccnc2ccc(N3CCOCC3)cc12` [(R)—N-(2-(4-Cyanothiazolidin-3-yl)-2-oxoethyl)-6-morpholinoquinoline-4-carboxamide], in assay [1], the “hFAP Binding assay k(off)” value was “k(off) = 0.000046 1/s^3” and the “hFAP Binding assay k(on)” value was “k(on) = 4900000 M^−1s^−1”. The same molecule returned an IC50 in assay [2] of 0.4 nM.
